Legend:
[1] = almonertinib; ref Yang et al., 2020; cited from earlier work
[2] = tested on: Abcb1a mRNA (P-gp); assay: qRT-PCR of mRNA expression in rat tissues after multiple-dose almonertinib; type: in vivo; conditions: rats given almonertinib for nine consecutive days, n = 3
Procedure: Sixty healthy rats were randomly divided into ten groups (n = 6). […] Blood samples were centrifuged at 3,500 g for 10 min, and then the supernatant was gathered and stored in a -80°C refrigerator. After, rat intestine, kidney and liver tissues were harvested for molecular analysis on the ninth or fifth day after treatment with the corresponding drugs for each group. The tissues were placed immediately at -80°C. qRT-PCR analysis was used to determine mRNA levels of Abcb1a, Abcg2 and Cyp3a1 in the liver and intestines, and Abcb1a and Abcg2 in the kidney of rats. Total RNA was isolated from frozen liver, intestine and kidney samples using TRNzol Universal according to the manufacturer's instructions. A Bio Tek Epoch (Bio Tek Instruments, Inc., Winooski, VT, United States) was employed to quantify the purity and concentration of the total RNA based on the ratio of the absorbance between 260 and 280 nm. RNA samples of 1 μg were transformed to complementary DNA (cDNA) using the […] Kit. The real-time PCR assays were accomplished using a two-step amplification method based on the recommendations in a SLAN-96S Real-Time PCR system (Shanghai Hongshi Medical Technology Co., Ltd. Shanghai, China). […] was used as an internal control, and the PCR cycling criteria were as follows: 95°C for 15 min, then 40 cycles of 95°C for 10, and 60°C for 32 s.

[3] = Stability in rat plasma under storage and processing conditions (QC samples, UPLC-MS/MS); conditions: n = 6
Procedure: The stability of plasma samples was validated by the QC samples at three concentration levels in six replicates under various storage and processing conditions: autosampler for 24 h after preprocessing, room temperature for 8 h, −80°C for 30 days, and three freeze-thaw cycles (−80°C to room temperature). The samples were verified to be stable if the deviation of the samples was not more than ±15% of the standard concentration.

[4] = Freeze-thaw stability for three times, high QC (nominal 150 almonertinib, 800 apixaban, 1,500 rivaroxaban ng/mL)
[5] = Freeze-thaw stability for three times, low QC (nominal 1 almonertinib, 2 apixaban, 10 rivaroxaban ng/mL)
[6] = Freeze-thaw stability for three times, medium QC (nominal 80 almonertinib, 400 apixaban, 800 rivaroxaban ng/mL)
[7] = Room temperature for 8 h, high QC (nominal 150 almonertinib, 800 apixaban, 1,500 rivaroxaban ng/mL)
[8] = Room temperature for 8 h, low QC (nominal 1 almonertinib, 2 apixaban, 10 rivaroxaban ng/mL)
[9] = Room temperature for 8 h, medium QC (nominal 80 almonertinib, 400 apixaban, 800 rivaroxaban ng/mL)
[10] = −80°C for 30 days, high QC (nominal 150 almonertinib, 800 apixaban, 1,500 rivaroxaban ng/mL)
[11] = −80°C for 30 days, low QC (nominal 1 almonertinib, 2 apixaban, 10 rivaroxaban ng/mL)
[12] = −80°C for 30 days, medium QC (nominal 80 almonertinib, 400 apixaban, 800 rivaroxaban ng/mL)

Stability: Accuracy (RE%) [3, 4]: −2.56% | Stability: measured concentration, Mean ± SD [3, 4]: 146.17 ± 6.68 ng/mL | Stability: Accuracy (RE%) [3, 5]: 1.47% | Stability: measured concentration, Mean ± SD [3, 5]: 1.01 ± 0.09 ng/mL | Stability: Accuracy (RE%) [3, 6]: 2.13% | Stability: measured concentration, Mean ± SD [3, 6]: 81.7 ± 2.27 ng/mL | Stability: Accuracy (RE%) [3, 7]: −1.67% | Stability: measured concentration, Mean ± SD [3, 7]: 147.50 ± 9.83 ng/mL | Stability: Accuracy (RE%) [3, 8]: 0.97% | Stability: measured concentration, Mean ± SD [3, 8]: 1.01 ± 0.08 ng/mL | Stability: Accuracy (RE%) [3, 9]: 0.60% | Stability: measured concentration, Mean ± SD [3, 9]: 80.48 ± 6.42 ng/mL | Stability: Accuracy (RE%) [3, 10]: −2.22% | Stability: measured concentration, Mean ± SD [3, 10]: 146.67 ± 10.63 ng/mL | Stability: Accuracy (RE%) [3, 11]: 2.33% | Stability: measured concentration, Mean ± SD [3, 11]: 1.02 ± 0.10 ng/mL | Stability: Accuracy (RE%) [3, 12]: 0.65% | Stability: measured concentration, Mean ± SD [3, 12]: 80.52 ± 3.47 ng/mL
SMILES: C=CC(=O)Nc1cc(Nc2nccc(-c3cn(C4CC4)c4ccccc34)n2)c(OC)cc1N(C)CCN(C)C [almonertinib, Almonertinib]
half-life [1]: 30 to 35 h | inhibition of mRNA expression of Abcb1a ([2]; intestine): 51.3% | inhibition of mRNA expression of Abcb1a ([2]; kidney): 42.9%
